Experimental data reported in publication PMC4257840 (Journal of Medicinal Chemistry, 2014).

Biological target: human recombinant procathepsin K (activated) (Homo sapiens, UniProt P43235)
Assay: Protease counter-screening: Cathepsin K
Format: biochemical
Experimental: Appendix 7. Protease Counter -Screening
Protease counter-screeni ng was performed using the methods described below. Initial screening was conducted in duplicate using a single test substance concentration of 10 µ M .
Additional assays were conducted in replicate for selected pairin gs of test s ubstance and enz yme in order to enable the determination of IC50 values using conventional procedures.
Determination of K i was made using the Batch K i program (Biokin Ltd, Pullman, WA) to derive values from the Morrison equation: […]
Where [E ] is the active enz yme concentration, Kiapp is the apparent inhibition const ant, v 0 is the control velocit y in the absence of inhibitors, vb is the background velocity, v is the initial reaction velocit y in the presence of inhibitor, and I is the inhibitor concentration.Thence:
Where [S ] is the substrate concentration and KM is the Michealis constant.
Caspase 1: Activity against human recombinant caspase 1 expressed in E. coli was tested using Ac-YVAD- AMC as the substrate. […]
The amount of MCA-P LG formed was measured spectrofluorimetricall y at 340 nm/400 nm. […]
AMC formation was read at 360 nm/465 nm.
Cathepsin L2: Human recombinant cathepsin L2 expressed in NS0 cells was used as the enzyme source. […] Form ation of AMC was measured at 360 […]
The amount of AMC formed was read spectrofluorimetricall y at 360 nm/465 nm. […]

human recombinant procathepsin K (activated), sequence (P43235 115-329): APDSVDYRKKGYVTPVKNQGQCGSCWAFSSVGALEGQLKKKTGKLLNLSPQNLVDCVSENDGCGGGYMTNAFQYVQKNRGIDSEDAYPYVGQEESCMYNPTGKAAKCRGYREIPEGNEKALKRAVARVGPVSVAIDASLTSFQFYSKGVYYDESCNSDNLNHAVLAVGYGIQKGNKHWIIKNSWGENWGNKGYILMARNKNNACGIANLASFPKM

CC(C)[C@H](NC(=O)[C@H](C)NC(=O)[C@@H](NC(=O)c1ccccc1)C(C)(C)C)C(=O)C(=O)NCc1ccccc1 [Compound 38, N-{(S)-1-[(S)-1-((S)-1-Benzylaminooxalyl-2-methyl-propylcarbamoyl)-ethylcarbamoyl]-2,2-dimethyl-propyl}-benzamide]
IC50: 2920 nM
